# Data taken from patent US10889607B2, “Sialic acid analogs” (Ultragenyx Pharmaceutical Inc., priority 2011, dated 2021).
# Like-named read-outs stand apart in the source and are kept apart here.
# Legend:
# [1] = rat, in vivo; cited from earlier work
# [2] = dog, in vivo; cited from earlier work
# [3] = Sialic acid/prodrug single dose PO crossover pharmacokinetics study; assay type: in vivo, cynomolgus monkeys; settings: for peak serum concentration (Cmax): serum sialic acid, mean n=3, single 100 mg/kg PO, fasted cynomolgus monkeys; for extent of the absorption: sialic acid API vs prodrug, single 100 mg/kg PO, cynomolgus monkeys
# Text: Example 4. Sialic Acid/Prodrug Single Dose PO Crossover Pharmacokinetics Study in Cynomolgus Monkeys
# A single oral dose crossover pharmacokinetic study of sialic acid (API) and prodrug (Compound 1—a valine ester of sialic acid as described above) was run in fasted cynomolgus monkeys (n=3). For this study, it was essential that the GI tract of the in vivo model have some similarities to human metabolism in order for the Pep Ti transporter system to be present, thus monkeys were chosen since they carry the same transporter in the gut as humans.
# The 100 mg/kg dose level chosen was based on what is known for dosing of sialic acid which has passed complete toxicological evaluation and is safe up to 2,000 mg/kg NOAEL in dogs and rats. On Day 1, three female cynomolgus monkeys were dosed with 100 mg/kg sialic acid (API) and on Day 8 the same three cynomolgus monkeys were dosed with 100 mg/kg of the prodrug. Serum was collected at the following timepoints: predose, then 5 min, 15 min, 30 min, 1 hr, 2 hrs, 4 hrs, 8 hrs, 12 hrs and 24 hrs postdose. Urine samples were collected predose overnight, then at intervals 0-4 hrs, 4-8 hrs, 8-12 hrs and 12-24 hrs post dose. The data in FIG. 2A show the mean absorption values (n=3) of serum sialic acid on Days 1 and 8. The prodrug peak serum concentration is earlier (1 hr) than sialic acid API (2 hrs). […] The pharmacokinetic data in FIGS. 2B and 2C show group averages of sialic acid concentrations on Days 1 and 8.
SMILES,NOAEL [1],NOAEL [2],peak serum concentration (Cmax) [3] [ng/mL],extent of the absorption [3]
"CC(=O)N[C@H]1[C@H]([C@H](O)[C@H](O)CO)OC(O)(C(=O)O)C[C@@H]1O (stereo partly drawn) [sialic acid, N-acetylneuraminic acid]","2,000 mg/kg","2,000 mg/kg",1623,similar
"CC(=O)NC1C(O)CC(O)(C(=O)O)OC1C(O)C(O)COC(=O)C(N)C(C)C (stereo not drawn) [Compound 1, 5-Acetylamino-6-[3-(2-amino-3-methyl-butyryloxy)-1,2-dihydroxy-propyl]-2,4-dihydroxy-tetrahydro-pyran-2-carboxylic acid]",–,–,857,similar
